# From publication PMC7307922 (Journal of Medicinal Chemistry, 2020)
# Where a chain is given by its changes, count along the chain named.
# How the values were obtained:
# [1] = target: T1, hFFA3 R71A (Homo sapiens, UniProt O14843, R71A); test: Potency at FFA3 mutant R71A; type: cell-based
# T1 sequence (O14843 1-346 R71A): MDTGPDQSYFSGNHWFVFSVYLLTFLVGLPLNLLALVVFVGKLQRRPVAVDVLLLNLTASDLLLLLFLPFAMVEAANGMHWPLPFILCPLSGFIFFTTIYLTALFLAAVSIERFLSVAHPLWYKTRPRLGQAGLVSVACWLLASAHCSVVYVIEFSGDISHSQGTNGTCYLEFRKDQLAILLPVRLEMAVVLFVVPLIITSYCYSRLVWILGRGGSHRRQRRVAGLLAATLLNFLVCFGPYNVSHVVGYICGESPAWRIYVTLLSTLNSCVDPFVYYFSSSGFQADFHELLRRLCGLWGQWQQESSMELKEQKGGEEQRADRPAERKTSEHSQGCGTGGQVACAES
# Description: The previously published compound 1 was not affected by mutation of either R185A or R258A in the orthosteric binding site, and the compounds were therefore believed to be allosteric modulators. […] After the publication of the FFA1 crystal structure in complex with an allosteric agonist located in the TM region close to the intracellular site,[32] a homology model of hFFA3 was constructed using Modeller. […] Thus, additional docking of (R)-1 in this site were performed to find poses where Q131, but not R126, show a central role in binding. […] The narrow binding cavity around the core scaffold is in agreement with the restrained SAR observed for this series and the furan moiety pointing out of the binding cavity might explain the flexibility in substituents at this site (Figure 3c,d). Although Q131A impacts the potency of (R)-1 with high significance, the magnitude of the effect is lower than what would be generally expected for the removal of a hydrogen bond interaction; thus, additional studies are required to confirm the proposed binding site.
# [2] = target: T2, hFFA3 (Homo sapiens, UniProt O14843); test: biochemical; conditions: for GTPγS pEC50: hFFA3, mean of ≥3 independent experiments ± standard error; for Emax: read-out: GTPγS Emax
# T2 sequence (O14843 1-346): T1 sequence (O14843 1-346 R71A) with A71R
# Description: The ligands were initially screened in a human FFA3-dependent [^35S]GTPγS binding assay as this assay reflects receptor-mediated activation of Gi/o proteins and is known to generally correlate well with ligand affinity.[30] Analogues of particular interest were tested further in a cAMP inhibition assay as this is an important downstream effect of Gi-activation. […] It is furthermore performed in whole cells, is more downstream, includes G protein signal amplification, and therefore better reflects a more natural ligand–receptor response.
# Membranes were isolated from Flp-In T-REx HEK293 cells treated with 100 ng/mL doxycycline to induce receptor expression. Cells were washed with ice-cold phosphate-buffered saline and removed from dishes by scraping before being centrifuged for 5 min at 4 °C, 3000 rpm. Pellets were resuspended in TE buffer (75 mM Tris–HCl, 5 mM EDTA; pH 7.5) with the addition of a protease inhibitor mixture (Roche Applied Science, West Sussex, UK). This was then homogenized with a 5 mL hand-held homogenizer and subsequently centrifuged at 1500 rpm for 5 min at 4 °C, from which the supernatant was collected and further centrifuged at 50 000 rpm for 30 min at 4 °C. The resulting pellet was resuspended in TE buffer, and the protein content was measured using a BCA protein assay kit (Pierce, Fisher Scientific, Loughborough, UK).
# Reactions were initiated with the addition of [^35S]GTPγS at 50 nCi per tube; reactions were terminated after 1 h of incubation at 25 °C by rapid filtration through GF/C glass filters using a 24-well Brandel cell harvester (Alpha Biotech, Glasgow, UK). Unbound radioligand was removed from filters by washing three times with ice-cold wash buffer (50 mM Tris–HCl, pH 7.4, and 10 mM MgCl2), and [^35S]GTPγS binding was determined by liquid scintillation spectrometry.
# [3] = target: T2, hFFA3; test: cell-based; conditions: for Emax: HEK293, read-out: cAMP Emax; for cAMP pEC50 / EC50: hFFA3; for cAMP pEC50: compound alone, mean of ≥3 independent experiments ± standard error; for EC50: read-out: EC50 (cAMP assay)
# Method in brief: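 HEK293 Flp-In T-REx cells stably carrying FFA3-eYFP, expression induced overnight with doxycycline, 3000 cells/well; compounds co-incubated 1 h to inhibit 0.3 μM forskolin-induced cAMP, read with HTRF cAMP kit.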
# [4] = target: T3, rFFA3 (Rattus norvegicus, UniProt B2GV46); test: cAMP assay, rFFA3; type: cell-based
# T3 construct: expressed in transfected cells; host or cells: HEK293 Flp-In T-REx, doxycycline-induced
# T3 sequence (B2GV46 1-319): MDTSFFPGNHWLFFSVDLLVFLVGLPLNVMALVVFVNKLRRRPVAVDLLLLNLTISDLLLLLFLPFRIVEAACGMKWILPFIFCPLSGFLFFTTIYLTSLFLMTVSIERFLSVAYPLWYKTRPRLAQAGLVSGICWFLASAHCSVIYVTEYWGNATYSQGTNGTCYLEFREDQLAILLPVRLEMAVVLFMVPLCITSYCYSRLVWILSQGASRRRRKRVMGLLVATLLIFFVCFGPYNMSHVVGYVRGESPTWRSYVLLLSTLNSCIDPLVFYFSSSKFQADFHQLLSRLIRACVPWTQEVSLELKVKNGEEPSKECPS
# Description: With several compounds with improved properties in hand, we wished to investigate the suitability of the compounds as tools for in vivo studies in rodents. Because of the moderate potency and low solubility associated with this series, it has been presumed that they are poorly suited as in vivo tools.
# HEK293 Flp-In T-Rex cells stably transfected with FFA3-eYFP receptors were incubated overnight with doxycycline to induce expression, then harvested, and cryopreserved. On the day of each experiment, cells were thawed and resuspended in stimulation buffer. Assays were carried out using a 384-well plate format with 3000 cells/well using the CisBio cAMP GS dynamic kit as per manufacturer’s protocol. Compounds were tested for the ability to inhibit 0.3 μM forskolin-induced cAMP production after co-incubation for 1 h. Reactions were measured using a PHERAstar FS plate reader (BMGLabtech, Aylesbury, UK).
# [5] = test system: cells dissociated from mouse dorsal root ganglia; test: Intracellular calcium in dorsal root ganglion cells of wild-type and FFA3 KO mice; type: cell-based; conditions: 5 μM; DRG cells of wild type vs FFA3 KO mice
# Description: Colonic innervating DRGs were isolated from the T9-L2 region of the spinal cord of C57/BL6 mice and from FFA3 knock-out animals and immediately placed in cold Hanks’ balanced salt solution (HBSS; Sigma-Aldrich). Isolated DRGs were initially digested with HBSS containing L-cysteine (0.3 mg/mL) and papain (2.0 mg/mL) for 20 min at 37 °C. The solution was removed and replaced with HBSS contain collagenase (4.0 mg/mL) and dispase (4.0 mg/mL) (20 min at 37 °C) for further digestion. The collagenase solution was then replaced with DMEM to stop the reaction. The DRGs were finally dissociated by mechanical trituration using a pipette. Dissociated cells were plated on matrigel-coated coverslips and placed in an incubator (37 °C and 5% CO2). Following a 2 h incubation, cells were flooded with 90% DMEM (Sigma) supplemented with 10% fetal calf serum and 1% PenStrep and further incubated overnight at 37 °C and 5% CO2.
# To measure intracellular calcium and its potential regulation, dissociated cells on the coverslips were loaded with Fura 8-AM (3 μM) (Stratech Scientific Limited) for 20 min at 37 °C in the dark. […]
SMILES,effect of mutation R71A on potency [1],higher potency than 3-furyl derivative 2 ([2]; GTPγS assay),GTPγS pEC50 [2],Emax [2],Emax [3],PAM pEC50 ([3]; cAMP assay in the presence of 1 μM propionate),cAMP pEC50 [3],cAMP pEC50 (rFFA3) [4],EC50 [3],elevation of intracellular calcium levels [5],"allosteric effect on propionate response ([3]; cAMP assay together with propionate (56: 30 μM compound; 62, 63: 1 μM propionate))"
"CC1=C(C(=O)Nc2ccccc2C)C(c2ccco2)C2=C(CCCC2=O)N1 (stereo not shown) [Compound 1, 4-(Furan-2-yl)-2-methyl-5-oxo-N-(o-tolyl)-1,4,5,6,7,8-hexahydroquinoline-3-carboxamide, reference compound]",did not affect,approximately 2 fold,5.65 ± 0.07,100%,105%,6.27 ± 0.15,6.28 ± 0.06,5.87 ± 0.07,–,–,–
"CC1=C(C(=O)Nc2cc(Cl)ccc2Cl)C(c2ccco2)C2=C(CCCC2=O)N1 (stereo not shown) [Compound 16, reference compound]",–,–,5.74 ± 0.11,120%,106%,–,6.89 ± 0.02,6.34 ± 0.04,–,–,–
"CCCC1C(C(=O)Nc2cc(Cl)ccc2Cl)=C(C)NC2=C1C(=O)CCC2 (stereo not shown) [Compound 57, N-(2,5-Dichlorophenyl)-2-methyl-5-oxo-4-propyl-1,4,5,6,7,8-hexahydroquinoline-3-carboxamide]",–,–,–,–,113%,–,6.84 ± 0.02,–,145 nM,large elevation in intracellular calcium levels in wild type but not FFA3 KO cells,–
"CC1=C(C(=O)Nc2cc(Cl)ccc2Cl)C(C2CCCC2)C2=C(CCCC2=O)N1 (stereo not shown) [Compound 63, 4-Cyclopentyl-N-(2,5-dichlorophenyl)-2-methyl-5-oxo-1,4,5,6,7,8-hexahydroquinoline-3-carboxamide]",–,–,–,–,99%,–,6.79 ± 0.05,6.39 ± 0.03,162 nM,–,did not reveal significant PAM effects
